Reference: patent US5302398A, “Gastroresistant pharmaceutical formulations for oral administration containing salts of bile acids” (Alfa Wassermann S.p.A., priority 1991, dated 1994)
Structures can show the parent of a compound that is named as a salt.

How the values were obtained:
[1] = pH of 1% (w/v) aqueous solution of the salt; format: physicochemical; conditions: 1% (w/v) in water
Procedure: The sodium and potassium salts of the ursodeoxycholic acid, whose 1% (w/v) aqueous solutions show pH values respectively equal to 7.80 and 7.90, are prepared in a similar manner.
20 Ml of a 0.5 M aqueous solution (10 mmoles) of 1-(2-hydroxyethyl)pyrrolidine are added under stirring to a suspension containing 3.92 g (10 mmoles) of ursodeoxycholic acid in 50 ml of water prolonging the stirring until complete solubilization. The obtained solution is then freeze-dried obtaining with quantitative yield a white powder corresponding to the salt in object.
The N-methyl-D-glucamine and L-arginine salts of the ursodeoxycholic acid, whose 1% (w/v) aqueous solutions show pH values respectively equal to 8.06 and 7.75, are prepared in a similar manner.
10 Ml of a 1 M aqueous solution (10 mmoles) of choline bicarbonate are added under stirring to a suspension containing 3.92 g (10 mmoles) of ursodeoxycholic acid in 50 ml of water prolonging the stirring until complete solubilization.

[2] = intestinal bacterial flora; pH lower than 8.4; cited from earlier work

Row | SMILES | pH value of a 1% (w/v) aqueous solution [1] | biotransformation of the unabsorbed portion [2]
1 | C[C@H](CCC(=O)O)[C@H]1CC[C@H]2[C@@H]3[C@@H](O)C[C@@H]4C[C@H](O)CC[C@]4(C)[C@H]3CC[C@]12C [Example 1, LITHIUM SALT OF THE URSODEOXYCHOLIC ACID] | 8.13 | 
2 | C[C@H](CCC(=O)O)[C@H]1CC[C@H]2[C@@H]3[C@@H](O)C[C@@H]4C[C@H](O)CC[C@]4(C)[C@H]3CC[C@]12C [Example 2, 1-(2-HYDROXYETHYL)PYRROLIDINE SALT OF THE URSODEOXYCHOLIC ACID] | 7.90 | 
3 | C[C@H](CCC(=O)O)[C@H]1CC[C@H]2[C@@H]3[C@@H](O)C[C@@H]4C[C@H](O)CC[C@]4(C)[C@H]3CC[C@]12C [Example 3, CHOLINE SALT OF THE URSODEOXYCHOLIC ACID] | 7.40 | 
4 | C[C@H](CCC(=O)O)[C@H]1CC[C@H]2[C@@H]3[C@@H](O)C[C@@H]4C[C@H](O)CC[C@]4(C)[C@H]3CC[C@]12C [L-arginine salt of the ursodeoxycholic acid] | 7.75 | 
5 | C[C@H](CCC(=O)O)[C@H]1CC[C@H]2[C@@H]3[C@@H](O)C[C@@H]4C[C@H](O)CC[C@]4(C)[C@H]3CC[C@]12C [N-methyl-D-glucamine salt of the ursodeoxycholic acid] | 8.06 | 
6 | C[C@H](CCC(=O)O)[C@H]1CC[C@H]2[C@@H]3[C@@H](O)C[C@@H]4C[C@H](O)CC[C@]4(C)[C@H]3CC[C@]12C [potassium salt of the ursodeoxycholic acid] | 7.90 | 
7 | C[C@H](CCC(=O)O)[C@H]1CC[C@H]2[C@@H]3[C@@H](O)C[C@@H]4C[C@H](O)CC[C@]4(C)[C@H]3CC[C@]12C [sodium salt of the ursodeoxycholic acid] | 7.80 | 
8 | C[C@H](CCC(=O)O)[C@H]1CC[C@H]2[C@@H]3[C@@H](O)C[C@@H]4C[C@H](O)CC[C@]4(C)[C@H]3CC[C@]12C [ursodeoxycholic acid] |  | undergoes a biotransformation to litocholic acid
